In ChEMBL document CHEMBL5050844 (2019):

How the values were obtained:
[1] = Induction of activation of human CD56+ CD3- NK cells co-cultured with human K562 cells in 5:1 ratio and assessed as increase in IFN-gamma secretion at 1 uM measured by ELISA assay; format: functional, Natural killer cell
[2] = molecular target: T1, E3 ubiquitin-protein ligase CBL-B (Homo sapiens, UniProt Q13191); test: Inhibition of N-terminal Avi-tagged human CBL-B (36 to 427 residues) incubated with 60 nM Src kinase for 1.5 hrs followed by incubation with fluorescently labeled UbcH5B-Ub for 1 hr and measured by TR-FRET assay; format: single protein
T1 sequence (Q13191 whole entry, the tested form may be a part): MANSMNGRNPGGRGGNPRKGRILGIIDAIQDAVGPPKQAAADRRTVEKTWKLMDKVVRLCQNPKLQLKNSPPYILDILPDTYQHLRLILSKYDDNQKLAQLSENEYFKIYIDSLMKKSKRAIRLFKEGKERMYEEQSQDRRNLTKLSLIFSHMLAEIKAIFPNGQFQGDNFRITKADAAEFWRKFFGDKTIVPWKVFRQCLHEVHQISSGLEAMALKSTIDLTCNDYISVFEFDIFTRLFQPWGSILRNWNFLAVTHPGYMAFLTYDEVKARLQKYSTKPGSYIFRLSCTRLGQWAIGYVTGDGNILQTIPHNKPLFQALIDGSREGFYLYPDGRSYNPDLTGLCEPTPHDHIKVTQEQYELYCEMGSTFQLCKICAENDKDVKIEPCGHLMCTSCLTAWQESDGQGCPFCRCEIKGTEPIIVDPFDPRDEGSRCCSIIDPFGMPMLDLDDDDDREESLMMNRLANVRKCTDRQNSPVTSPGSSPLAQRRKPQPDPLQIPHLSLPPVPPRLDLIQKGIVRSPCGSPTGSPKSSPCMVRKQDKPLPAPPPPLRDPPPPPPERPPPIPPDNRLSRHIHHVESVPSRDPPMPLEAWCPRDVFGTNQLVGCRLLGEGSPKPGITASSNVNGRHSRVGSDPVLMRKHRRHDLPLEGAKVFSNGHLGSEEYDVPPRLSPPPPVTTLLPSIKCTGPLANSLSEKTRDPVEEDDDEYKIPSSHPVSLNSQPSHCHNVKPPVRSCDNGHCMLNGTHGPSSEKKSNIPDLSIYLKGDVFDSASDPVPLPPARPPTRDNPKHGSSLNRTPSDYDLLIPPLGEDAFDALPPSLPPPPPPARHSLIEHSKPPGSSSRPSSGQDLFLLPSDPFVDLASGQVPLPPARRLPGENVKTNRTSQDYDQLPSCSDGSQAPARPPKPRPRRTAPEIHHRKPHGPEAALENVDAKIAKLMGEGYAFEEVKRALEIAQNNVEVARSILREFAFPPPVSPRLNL

[3] = Induction of anti-CD3/CD28 antibodies-stimulated human CD8+ T cell activation at 10 uM assessed fold increase in cell proliferation measured by flow cytometry analysis; format: functional, T cell line
[4] = Induction of activation of human CD56+ CD3- NK cells co-cultured with human K562 cells in 5:1 ratio and assessed as increase in MIP1beta secretion at 10 uM measured by ELISA assay; format: functional, Natural killer cell
[5] = Induction of activation of human CD56+ CD3- NK cells co-cultured with human K562 cells in 1:1 ratio and assessed as increase in IFN-gamma secretion at 0.625 uM measured by ELISA assay; format: functional, Natural killer cell
[6] = Induction of anti-CD3 antibodies-stimulated human exhausted T cell activation assessed fold increase in IFN-gamma secretion measured by ELISA assay; format: functional, T cell line; note: reference of the scale not given here
[7] = Induction of activation of human CD56+ CD3- NK cells co-cultured with human K562 cells in 1:1 ratio and assessed as increase in TNF-alpha secretion at 1 uM measured by ELISA assay; format: functional, Natural killer cell
[8] = Induction of anti-CD3 antibodies-stimulated human T cell activation at 10 uM assessed fold increase in TNF-alpha secretion measured by ELISA assay; format: functional, T cell line; note: reference of the scale not given here
[9] = Induction of anti-CD3/CD28 antibodies-stimulated human CD8+ T cell activation at 10 uM assessed fold increase in CD69 expression measured by flow cytometry analysis; format: functional, T cell line
[10] = Induction of anti-CD3/CD28 antibodies-stimulated human T cell activation at 4 uM assessed fold increase in CD25 expression measured by ELISA assay; format: functional, T cell line
[11] = Induction of anti-CD3/CD28 antibodies-stimulated human anergic T cell activation at 1.11 uM assessed fold increase in IFN-gamma secretion measured by ELISA assay; format: functional, T cell line
[12] = Induction of anti-CD3 antibodies-stimulated human exhausted CD4+ T cell activation assessed fold increase in CTLA4 expression measured by flow cytometry analysis; format: functional, T cell line; note: reference of the scale not given here
[13] = Induction of activation of human CD56+ CD3- NK cells co-cultured with human K562 cells in 5:1 ratio and assessed as increase in TNF-alpha secretion at 10 uM measured by ELISA assay; format: functional, Natural killer cell
[14] = Induction of activation of human CD56+ CD3- NK cells co-cultured with human K562 cells in 1:1 ratio and assessed as increase in TNF-alpha secretion at 0.625 uM measured by ELISA assay; format: functional, Natural killer cell
[15] = Induction of activation of human CD56+ CD3- NK cells co-cultured with human K562 cells in 1:1 ratio and assessed as increase in MIP1beta secretion at 10 uM measured by ELISA assay; format: functional, Natural killer cell
[16] = Induction of activation of human CD56+ CD3- NK cells co-cultured with human K562 cells in 5:1 ratio and assessed as increase in IFN-gamma secretion at 10 uM measured by ELISA assay; format: functional, Natural killer cell
[17] = Induction of activation of human CD56+ CD3- NK cells co-cultured with human K562 cells in 5:1 ratio and assessed as increase in MIP1beta secretion at 1 uM measured by ELISA assay; format: functional, Natural killer cell
[18] = Induction of allogenic human T cell activation at 3 uM assessed fold increase in cell proliferation; format: functional, T cell line
[19] = Induction of activation of human CD56+ CD3- NK cells co-cultured with human K562 cells in 1:1 ratio and assessed as increase in IFN-gamma secretion at 1 uM measured by ELISA assay; format: functional, Natural killer cell
[20] = Induction of anti-CD3/CD28 antibodies-stimulated human T cell activation at 1 uM assessed fold increase in IL-2 secretion measured by ELISA assay; format: functional, T cell line
[21] = Induction of anti-CD3 antibodies-stimulated human T cell activation at 1.11 uM assessed fold increase in GM-CSF secretion measured by ELISA assay; format: functional, T cell line; note: reference of the scale not given here
[22] = Induction of anti-CD3/CD28 antibodies-stimulated human T cell activation at 1.11 uM assessed fold increase in GM-CSF secretion measured by ELISA assay; format: functional, T cell line
[23] = Induction of activation of human CD56+ CD3- NK cells co-cultured with human K562 cells in 5:1 ratio and assessed as increase in TNF-alpha secretion at 1 uM measured by ELISA assay; format: functional, Natural killer cell
[24] = Induction of activation of human CD56+ CD3- NK cells co-cultured with human K562 cells in 1:1 ratio and assessed as increase in MIP1beta secretion at 1 uM measured by ELISA assay; format: functional, Natural killer cell
[25] = Induction of anti-CD3/CD28 antibodies-stimulated human CD8+ T cell activation at 1.11 uM assessed fold increase in cell proliferation measured by flow cytometry analysis; format: functional, T cell line
[26] = Induction of anti-CD3 antibodies-stimulated human T cell activation at 1 uM assessed fold increase in IL-2 secretion measured by ELISA assay; format: functional, T cell line; note: reference of the scale not given here
[27] = molecular target: T1, E3 ubiquitin-protein ligase CBL-B; test: Binding affinity towards N-terminal biotinylated Avi-tagged human CBL-B (36 to 427 residues) measured by surface plasmon resonance assay
[28] = Induction of anti-CD3 antibodies-stimulated human CD8+ T cell activation in immunocompetent mouse assessed fold increase in CD25 expression at 90 mg/kg, ip administered thrice a day; format: functional; note: reference of the scale not given here
[29] = Induction of anti-CD3 antibodies-stimulated human CD4+ T cell activation in immunocompetent mouse assessed fold increase in CD25 expression at 90 mg/kg, po administered twice a day; format: functional; note: reference of the scale not given here
[30] = Induction of anti-CD3 antibodies-stimulated human CD8+ T cell activation in immunocompetent mouse assessed fold increase in CD25 expression at 180 mg/kg, po administered twice a day; format: functional; note: reference of the scale not given here
[31] = Induction of anti-CD3 antibodies-stimulated human CD8+ T cell activation in immunocompetent mouse assessed fold increase in CD25 expression at 135 mg/kg, po administered twice a day; format: functional; note: reference of the scale not given here
[32] = Induction of anti-CD3 antibodies-stimulated human CD4+ T cell activation in immunocompetent mouse assessed fold increase in CD25 expression at 180 mg/kg, po administered twice a day; format: functional; note: reference of the scale not given here
[33] = Induction of anti-CD3 antibodies-stimulated human CD4+ T cell activation in immunocompetent mouse assessed fold increase in CD25 expression at 135 mg/kg, po administered twice a day; format: functional; note: reference of the scale not given here

IC50 [2] [nM]	Structure (SMILES)	fold change (FC) [1]	fold change (FC) [3]	fold change (FC) [4]	fold change (FC) [5]	fold change (FC) [6]	fold change (FC) [7]	fold change (FC) [8]	fold change (FC) [9]	fold change (FC) [10]	fold change (FC) [11]	fold change (FC) [12]	fold change (FC) [13]	fold change (FC) [14]	fold change (FC) [15]	fold change (FC) [16]	fold change (FC) [17]	fold change (FC) [18]	fold change (FC) [19]	fold change (FC) [20]	also measured
< 100	Cn1cnnc1C(F)(F)[C@](C)(F)c1cccc(N2Cc3c(cc(C(=O)N4CC[C@H](O)C4)cc3C(F)(F)F)C2=O)c1	<=1	3.01	1.01	1.01	<=1.4	1.01	1.51	1.201	1.31	<=2.5	<=1.4	1.01	1.01	<=1	1.01	<=1	<=2	<=1	2.51	fold change (FC) [21]: <=1.5; fold change (FC) [22]: 1.51; fold change (FC) [23]: 1.01; fold change (FC) [24]: <=1; fold change (FC) [25]: <=2; fold change (FC) [26]: 0.101
< 100	Cc1cc(C(=O)Nc2cccc([C@H](C)Cc3nncn3C)c2)nc(C2CC2)n1	2.01	>4	2.01	2.01	1.41	2.01	1.51	1.201	>=1.76	<=2.5	>1.61	>=5	1.01	2.01	>=5	2.01	<=2	2.01	>=7.5	Kd [27]: < 100 nM; fold change (FC) [28]: 1; fold change (FC) [29]: 1; fold change (FC) [30]: 1; fold change (FC) [21]: 2.01; fold change (FC) [31]: 1; fold change (FC) [22]: >4; fold change (FC) [23]: 2.01; fold change (FC) [24]: 1.01; fold change (FC) [32]: 1.51; fold change (FC) [25]: <=2; fold change (FC) [33]: 1; fold change (FC) [26]: >=0.201
< 100	C[C@H](Cc1nncn1C)c1cccc(N2Cc3c(cc(CN4CC[C@H](F)C4)cc3C(F)(F)F)C2=O)c1	2.01	>4	1.01	2.01	>1.61	2.01	1.51	1.201	1.31	>4.01	>1.61	>=5	2.01	1.01	>=5	1.01	2.01	2.01	>=7.5	Kd [27]: < 100 nM; fold change (FC) [21]: 2.01; fold change (FC) [22]: >4; fold change (FC) [23]: 2.01; fold change (FC) [24]: 1.01; fold change (FC) [25]: >4; fold change (FC) [26]: 0.151
